According to patent publication US9670157B2, “Benzylamine derivatives” (KALVISTA PHARMACEUTICALS LIMITED, priority 2013, dated 2017):
pIC50: −log10 of the molar value.

Tests used:
Human KLK1 = Human KLK1 (Homo sapiens (Human), UniProt P06870); test: Determination of the IC50 for KLK1; type: biochemical; settings: 37° C., fluorogenic substrate H-DVal-Leu-Arg-AFC
Procedure: KLK1 inhibitory activity in vitro was determined using standard published methods (see e.g. Johansen et al., Int. J. Tiss. Reac. 1986, 8, 185; Shori et al., Biochem. Pharmacol., 1992, 43, 1209; Stürzebecher et al., Biol. Chem. Hoppe-Seyler, 1992, 373, 1025). Human KLK1 (Callbiochem) was incubated at 37° C. with the fluorogenic substrate H-DVal-Leu-Arg-AFC and various concentrations of the test compound. Residual enzyme activity (initial rate of reaction) was determined by measuring the change in optical absorbance at 410 nm and the IC50 value for the test compound was determined.

Human plasma kallikrein = Human plasma kallikrein (Homo sapiens (Human), UniProt P03952); test: Determination of the IC50 for Plasma Kallikrein; type: biochemical; settings: 37° C., fluorogenic substrate H-DPro-Phe-Arg-AFC; read-out: IC50 (human PKal)
Procedure: Human plasma kallikrein (Protogen) was incubated at 37° C. with the fluorogenic substrate H-DPro-Phe-Arg-AFC and various concentrations of the test compound. Residual enzyme activity (initial rate of reaction) was determined by measuring the change in optical absorbance at 410 nm and the IC50 value for the test compound was determined.

Human KLK1, sequence (P06870 25-262): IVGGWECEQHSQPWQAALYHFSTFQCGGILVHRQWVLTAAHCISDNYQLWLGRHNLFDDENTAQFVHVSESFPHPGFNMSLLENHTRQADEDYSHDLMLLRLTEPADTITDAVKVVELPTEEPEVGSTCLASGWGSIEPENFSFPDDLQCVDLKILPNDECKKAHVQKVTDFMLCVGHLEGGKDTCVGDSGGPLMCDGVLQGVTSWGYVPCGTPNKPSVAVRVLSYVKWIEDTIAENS
Human plasma kallikrein, sequence (P03952 391-638): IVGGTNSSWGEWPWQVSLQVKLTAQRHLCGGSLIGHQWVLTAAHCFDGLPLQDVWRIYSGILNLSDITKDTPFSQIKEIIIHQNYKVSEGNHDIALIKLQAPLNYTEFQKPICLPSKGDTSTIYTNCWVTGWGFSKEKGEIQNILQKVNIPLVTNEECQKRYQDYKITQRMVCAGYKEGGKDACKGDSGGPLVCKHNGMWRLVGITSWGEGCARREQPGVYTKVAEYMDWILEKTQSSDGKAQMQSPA
Human plasma kallikrein, sequence (P03952 20-390 partner): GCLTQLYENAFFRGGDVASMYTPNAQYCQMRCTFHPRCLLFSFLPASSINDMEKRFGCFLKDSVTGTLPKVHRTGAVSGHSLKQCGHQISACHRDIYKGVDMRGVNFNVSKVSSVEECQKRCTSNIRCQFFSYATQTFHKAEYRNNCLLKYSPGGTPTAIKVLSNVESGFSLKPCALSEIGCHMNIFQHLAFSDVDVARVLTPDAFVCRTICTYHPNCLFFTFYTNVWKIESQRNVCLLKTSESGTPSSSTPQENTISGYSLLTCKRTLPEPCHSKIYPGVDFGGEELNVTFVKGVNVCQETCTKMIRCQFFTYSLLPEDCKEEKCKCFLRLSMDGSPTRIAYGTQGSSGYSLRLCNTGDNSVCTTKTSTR

| Compound | pIC50 (Human KLK1) | pIC50 (Human plasma kallikrein) |
| --- | --- | --- |
| Cc1cc(C(=O)NCc2ccc(CN)cc2)c(C)n1Cc1csc(-c2cccnc2)n1 [Example 31, 2,5-Dimethyl-1-(2-pyridin-3-yl-thiazol-4-ylmethyl)-1H-pyrrole-3-carboxylic acid 4-aminomethyl-benzylamide] | 5.09 | 6.60 |
| Cc1cc(C(=O)NCc2ccc(CN)cc2)c(C)n1Cc1csc(-c2ccncc2)n1 [Example 32, 2,5-Dimethyl-1-(2-pyridin-4-yl-thiazol-4-ylmethyl)-1H-pyrrole-3-carboxylic acid 4-aminomethyl-benzylamide] | < 5.00 | 6.14 |
| Cc1ccc(-c2nc(Cn3c(C)cc(C(=O)NCc4ccc(CN)cc4)c3C)cs2)cc1 [Example 35, 2,5-Dimethyl-1-(2-p-tolyl-thiazol-4-ylmethyl)-1H-pyrrole-3-carboxylic acid 4-aminomethyl-benzylamide] | < 5.00 | 5.68 |
| Cc1cc(C(=O)NCc2ccc(CN)cc2)c(C)n1Cc1csc(-c2ccccn2)n1 [Example 36, 2,5-Dimethyl-1-(2-pyridin-2-yl-thiazol-4-ylmethyl)-1H-pyrrole-3-carboxylic acid 4-aminomethyl-benzylamide] | < 5.00 | 6.69 |
| Cc1cc(C(=O)NCc2ccc(CN)cc2)c(C)n1Cc1csc(Cc2ccccc2)n1 [Example 38, 1-(2-Benzyl-thiazol-4-ylmethyl)-2,5-dimethyl-1H-pyrrole-3-carboxylic acid 4-aminomethyl-benzylamide] | < 5.00 | 5.64 |
| Cc1cc(C(=O)NCc2ccc(CN)cc2)c(C)n1Cc1csc(-c2cnccn2)n1 [Example 40, 2,5-Dimethyl-1-(2-pyrazin-2-yl-thiazol-4-ylmethyl)-1H-pyrrole-3-carboxylic acid 4-aminomethyl-benzylamide] | < 5.00 | 5.78 |
| CCOc1ccc(-c2nc(Cn3c(C)cc(C(=O)NCc4ccc(CN)cc4)c3C)cs2)cc1 [Example 41, 1-[2-(4-Ethoxy-phenyl)-thiazol-4-ylmethyl]-2,5-dimethyl-1H-pyrrole-3-carboxylic acid 4-aminomethyl-benzylamide] | < 5.00 | 5.33 |
| Cc1cc(C(=O)N[C@H](C)c2ccc(CN)cc2)c(C)n1Cc1csc(-c2ccccc2)n1 [Example 42, 2,5-Dimethyl-1-(2-phenyl-thiazol-4-ylmethyl)-1H-pyrrole-3-carboxylic acid [(R)-1-(4-aminomethyl-phenyl)-ethyl]-amide] | < 5.00 | 6.02 |
| Cc1cc(C(=O)NCc2ccc(CN)nc2)c(C)n1Cc1csc(-c2cccc(F)c2)n1 [Example 44, 1-[2-(3-Fluoro-phenyl)-thiazol-4-ylmethyl]-2,5-dimethyl-1H-pyrrole-3-carboxylic acid (6-aminomethyl-pyridin-3-ylmethyl)-amide] | < 5.00 | 6.45 |
| Cc1cc(CNC(=O)c2cc(C)n(Cc3csc(-c4ccccc4)n3)c2C)ccc1CN [Example 46, 2,5-Dimethyl-1-(2-phenyl-thiazol-4-ylmethyl)-1H-pyrrole-3-carboxylic acid 4-aminomethyl-3-methyl-benzylamide] | 5.31 | 5.93 |
| Cc1cc(C(=O)NCc2ccc(CN)cc2F)c(C)n1Cc1csc(-c2ccccc2)n1 [Example 47, 2,5-Dimethyl-1-(2-phenyl-thiazol-4-ylmethyl)-1H-pyrrole-3-carboxylic acid 4-aminomethyl-2-fluoro-benzylamide] | < 5.00 | 7.13 |
| Cc1cc(C(=O)NCc2ccc([C@@H](C)N)cc2)c(C)n1Cc1csc(-c2ccccc2)n1 [Example 48, 2,5-Dimethyl-1-(2-phenyl-thiazol-4-ylmethyl)-1H-pyrrole-3-carboxylic acid 4-((R)-1-amino-ethyl)-benzylamide] | < 5.00 | 6.20 |
| Cc1cc(C(=O)NCc2ccc(CN)cc2Cl)c(C)n1Cc1csc(-c2ccccc2)n1 [Example 49, 2,5-Dimethyl-1-(2-phenyl-thiazol-4-ylmethyl)-1H-pyrrole-3-carboxylic acid 4-aminomethyl-2-chloro-benzylamide] | < 5.00 | 7.05 |
| Cc1cc(C(=O)NCc2ccc(CN)cc2C(F)(F)F)c(C)n1Cc1csc(-c2ccccc2)n1 [Example 50, 2,5-Dimethyl-1-(2-phenyl-thiazol-4-ylmethyl)-1H-pyrrole-3-carboxylic acid 4-aminomethyl-2-trifluoromethyl-benzylamide] | < 5.00 | 7.25 |
| Cc1cc(C(=O)NCc2ccc([C@H](C)N)cc2)c(C)n1Cc1csc(-c2ccccc2)n1 [Example 51, 2,5-Dimethyl-1-(2-phenyl-thiazol-4-ylmethyl)-1H-pyrrole-3-carboxylic acid-4-((S)-1-amino-ethyl)-benzylamide] | < 5.00 | 6.47 |
| Cc1cc(C(=O)NC2(c3ccc(CN)cc3)CC2)c(C)n1Cc1csc(-c2ccccc2)n1 [Example 52, 2,5-Dimethyl-1-(2-phenyl-thiazol-4-ylmethyl)-1H-pyrrole-3-carboxylic acid [1-(4-aminomethyl-phenyl)-cyclopropyl]-amide] | < 5.00 | 6.32 |
| COc1cc(CNC(=O)c2cc(C)n(Cc3csc(-c4ccccc4)n3)c2C)ccc1CN [Example 53, 2,5-Dimethyl-1-(2-phenyl-thiazol-4-ylmethyl)-1H-pyrrole-3-carboxylic acid 4-aminomethyl-3-methoxy-benzylamide] | < 5.00 | 6.17 |
| COc1cc(CN)ccc1CNC(=O)c1cc(C)n(Cc2csc(-c3ccccc3)n2)c1C [Example 54, 2,5-Dimethyl-1-(2-phenyl-thiazol-4-ylmethyl)-1H-pyrrole-3-carboxylic acid 4-aminomethyl-2-methoxy-benzylamide] | < 5.00 | 7.52 |
| Cc1cc(C(=O)NCc2ccc(CN)cc2Cl)c(C)n1Cc1ccccc1 [Example 56, 1-Benzyl-2,5-dimethyl-1H-pyrrole-3-carboxylic acid 4-aminomethyl-2-chloro-benzylamide] | 5.26 | 5.41 |
| Cc1cc(C(=O)NCc2ccc(CN)cc2)c(-c2ccccc2)n1Cc1ccccc1 [Example 57, 1-Benzyl-5-methyl-2-phenyl-1H-pyrrole-3-carboxylic acid 4-aminomethyl-benzylamide] | < 5.00 | 5.14 |
| CCOc1cccc(Cn2c(C)cc(C(=O)NCc3ccc(CN)cc3)c2C)c1 [Example 58, 1-(3-Ethoxy-benzyl)-2,5-dimethyl-1H-pyrrole-3-carboxylic acid 4-aminomethyl-benzylamide] | < 5.00 | 5.31 |
| CCOc1ccc(Cn2c(C)cc(C(=O)NCc3ccc(CN)cc3)c2C)cc1 [Example 59, 1-(4-Ethoxy-benzyl)-2,5-dimethyl-1H-pyrrole-3-carboxylic acid 4-aminomethyl-benzylamide] | < 5.00 | 5.56 |
| Cc1cc(C(=O)NCc2ccc(CN)cc2)c(C)n1Cc1ccc(OCc2ccccc2)cc1 [Example 60, 1-(4-Benzyloxy-benzyl)-2,5-dimethyl-1H-pyrrole-3-carboxylic acid 4-aminomethyl-benzylamide] | < 5.00 | 5.51 |
| COc1ccc(Cn2c(C)cc(C(=O)NCc3ccc(CN)cc3)c2C)cc1 [Example 61, 1-(4-Methoxy-benzyl)-2,5-dimethyl-1H-pyrrole-3-carboxylic acid 4-aminomethyl-benzylamide] | < 5.00 | 5.52 |
